Drawing on ChEMBL document CHEMBL3352449, “Synthesis and biological evaluation of 1α,25-dihydroxyvitamin D3 analogues with aromatic side chains attached at C-17” (Eur J Med Chem, 2014), this text covers Ratio, IC50 and Activity for four compounds.

Structures are written as SMILES. Activity calls are given as the source filed them. The calls are words filed in the database; no cut-off is given here.

The target in assay [1] is T1, Vitamin D3 receptor (Bos taurus) (UniProt Q28037).
T1 sequence (whole entry): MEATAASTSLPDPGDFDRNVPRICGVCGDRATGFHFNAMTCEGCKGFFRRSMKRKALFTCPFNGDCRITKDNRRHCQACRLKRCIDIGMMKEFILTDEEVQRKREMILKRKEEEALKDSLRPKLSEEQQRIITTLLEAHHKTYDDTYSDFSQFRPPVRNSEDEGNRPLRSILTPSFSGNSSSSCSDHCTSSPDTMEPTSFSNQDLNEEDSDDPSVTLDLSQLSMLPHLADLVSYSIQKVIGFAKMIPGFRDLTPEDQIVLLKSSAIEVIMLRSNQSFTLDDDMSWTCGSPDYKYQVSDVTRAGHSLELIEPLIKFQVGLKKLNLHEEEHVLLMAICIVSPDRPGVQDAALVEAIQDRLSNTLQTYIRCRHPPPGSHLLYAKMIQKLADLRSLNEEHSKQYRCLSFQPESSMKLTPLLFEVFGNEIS
Kind of assay: Displacement of [3H]-1alpha,25-dihydroxyvitamin D3 from bovine thymus VDR measured after overnight incubation relative to 1alpha,25-dihydroxyvitamin D3. (In a radioligand displacement assay an active substance lowers the binding of a labelled ligand.)

The next assay has as its system MCF7. The experiment in a line: Antiproliferative activity against human MCF7 cells assessed as inhibition of proliferation after 72 hrs by MTT assay. As to conditions: MCF7, 72 h. The class given is functional, cell-based. A general note: Formazan colour is commonly taken as a measure of viable cells.
A further assay concerns HL-60. Kind of assay: Induction of cell differentiation in human HL60 cells assessed as maturing morphological changes at 30 to 1000 nM after 48 hrs by Wright's-Giemsa staining-based forty microscopic view assay. The class given is functional.

In general, IC50 refers to the concentration that inhibits the measured activity by half.

Consider `C=C1CC[C@H](O)C/C1=C/C=C1\CCC[C@]2(C)[C@@H]([C@H](C)CCCC(C)(C)O)CC[C@@H]12`, for which the Ratio in assay [1] stood at 0.01.

In the case of `C=C1/C(=C\C=C2/CCC[C@]3(C)C(c4cccc(CCCC(C)(C)O)c4)=CC[C@@H]23)C[C@@H](O)C[C@@H]1O`, in the assay on MCF7, the IC50 was found to be 7.56 µM. The Ratio in assay [1] was determined as 0.015. Moreover, the result in the assay with HL-60 was Active.

Turning to `C=C1/C(=C\C=C2/CCC[C@]3(C)[C@@H]([C@H](C)CCCC(C)(C)O)CC[C@@H]23)C[C@@H](O)C[C@@H]1O`, in the assay with HL-60, the result was Active.

Turning to `C=C1/C(=C\C=C2/CCC[C@]3(C)C(c4ccccc4CCCC(C)(C)O)=CC[C@@H]23)C[C@@H](O)C[C@@H]1O`, the IC50 in the assay with MCF7 amounted to 7.08 µM. Besides, in assay [1], the Ratio turned out to be 0.01. Further, the result with HL-60 was Active.
